Experimental data from US7300946B2, “N-(substituted arylmethyl)-4-(disubstituted methyl) piperidines and pyridines” (Bayer CropScience AG, priority 2002, dated 2007).

Tested on: tobacco budworm (Heliothis virescens [Fabricius])
Test: surface-treated diet test against the tobacco budworm
Type: in vivo
Details: tobacco budworm second instar larvae, 0.25 millimoles of candidate insecticide on the surface of the diet, five-day exposure; for Percent Mortality: compared to total number of insects infested; for Percent Growth Inhibition: inhibition of insect weight relative to untreated controls
Outline: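 Wheat germ artificial diet surface-treated with 40 µL of 50 mM DMSO stock diluted 1:7 in 1:1 water/acetone (0.25 millimolar on diet), or sub-multiples for rate tests. One second-instar larva per well, 25° C, 60% RH, 5 days; percent weight inhibition vs DMSO controls and percent mortality.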

Row | Structure (SMILES) | Percent Mortality (surface-treated diet) | Percent Growth Inhibition (surface-treated diet) | Percent Mortality | Percent Growth Inhibition
1 | O=C(Nc1cc(Cl)c(Cl)cc1Cl)OC(c1ccc(C(F)(F)F)cc1)C1CCN(Cc2ccc(Oc3ccccn3)cc2)CC1 (stereo not shown) [Compound 234] | 100% | 100% | – | –
2 | CCn1nnc(-c2ccc(CN3CCC(C(OC(=O)Nc4ccc(C(F)(F)F)cc4)c4ccc(C)cc4)CC3)cc2)n1 (stereo not shown) [Compound 600] | 100% | 100% | – | –
3 | O=C(Nc1ccc(Cl)cc1)OC(c1ccc(Cl)c(Cl)c1)C1CCN(Cc2ccc(Oc3ccccn3)cc2)CC1 (stereo not shown) [Compound 645] | 100% | 100% | – | –
4 | CNC(=O)Oc1ccc(CN2CCC(=C(c3ccc(C(F)(F)F)cc3)c3ccc(C(F)(F)F)cc3)CC2)cc1 [Compound 790] | – | – | 100% | 100%
5 | CCn1nnc(-c2ccc(CN3CCC(C(OC(=O)Nc4ccc(F)c(F)c4)c4ccc(OC)cc4)CC3)cc2)n1 (stereo not shown) [Compound 603] | 100% | 100% | – | –
6 | O=C(Nc1cc(F)cc(F)c1)OC(c1cccc(C(F)(F)F)c1)C1CCN(Cc2ccc(Oc3ccccn3)cc2)CC1 (stereo not shown) [Compound 654] | 100% | 100% | – | –
7 | O=C(Nc1cc(F)cc(F)c1)OC(c1ccc(C(F)(F)F)cc1)C1CCN(Cc2ccc(Oc3ccc(C(F)(F)F)cn3)cc2)CC1 (stereo not shown) [Compound 691] | 100% | 100% | – | –
8 | CCn1nnc(-c2ccc(CN3CCC(C(OC(=O)Nc4ccc(Cl)cc4)c4ccc(C)cc4)CC3)cc2)n1 (stereo not shown) [Compound 595] | 100% | 100% | – | –
9 | COc1ccc(CN2CCC(=C(c3ccc(OC(F)(F)F)cc3)c3ccc(OC(F)(F)F)cc3)CC2)cc1 [Compound 42] | 100% | 100% | – | –
10 | CCON=Cc1ccc(CN2CCC(C(OC(=O)Nc3cc(F)cc(F)c3)c3cc(Cl)cc(Cl)c3)CC2)cc1 (stereo not shown) [Compound 534] | 100% | 100% | – | –
11 | Cn1nnc(-c2ccc(CN3CCC(C(NC(=O)Nc4ccccc4F)c4ccc(OC(F)(F)F)cc4)CC3)cc2)n1 (stereo not shown) [Compound 338] | 100% | 100% | – | –
12 | Cn1nnc(-c2ccc(CN3CCC(C(NC(=O)Oc4ccccc4F)c4ccc(OC(F)(F)F)cc4)CC3)cc2)n1 (stereo not shown) [Compound 351] | 50% | 100% | – | –
13 | CC(=O)c1ccc(NC(=O)OC(c2ccc(C(F)(F)F)cc2)C2CCN(Cc3ccc(Oc4ccccn4)cc3)CC2)cc1 (stereo not shown) [Compound 705] | – | – | 17% | 100%
14 | O=C(Nc1ccccc1Cl)OC(c1ccc(C(F)(F)F)cc1)C1CCN(Cc2ccc(Oc3ccccn3)cc2)CC1 (stereo not shown) [Compound 662] | 100% | 100% | – | –
15 | O=C(Nc1cc(F)cc(F)c1)OC(c1ccc(C(F)(F)F)cc1)C1CCN(Cc2ccc(-c3csnn3)cc2)CC1 (stereo not shown) [Compound 560] | 33% | 96% | – | –
16 | O=C(Nc1ccc(F)cc1)OC(c1ccc(OC(F)(F)F)cc1)C1CCN(Cc2ccccc2)CC1 (stereo not shown) [Compound 458] | 0% | 94% | – | –
17 | O=C(Nc1ccc(F)c(F)c1F)OC(c1ccc(C(F)(F)F)cc1)C1CCN(Cc2ccc(Oc3ccccn3)cc2)CC1 (stereo not shown) [Compound 242] | 100% | 100% | – | –
18 | CNC(=O)Oc1ccc(C[N+]2([O-])CCC(=C(c3ccc(C(F)(F)F)cc3)c3ccc(C(F)(F)F)cc3)CC2)cc1 (stereo not shown) [Compound 828] | – | – | 100% | 100%
19 | CCCOc1ccc(CN2CCC(C(OC(=O)Nc3ccc(F)cc3)c3cccc(C(F)(F)F)c3)CC2)cc1 (stereo not shown) [Compound 486] | 100% | 100% | – | –
20 | Cn1nnc(-c2ccc(CN3CCC(C(NC(=O)c4ccc(Br)cc4)c4ccc(OC(F)(F)F)cc4)CC3)cc2)n1 (stereo not shown) [Compound 325] | 50% | 100% | – | –
21 | C#CCON=Cc1ccc(CN2CCC(C(OC(=O)Nc3ccc(Cl)cc3)c3ccc(C(F)(F)F)cc3)CC2)cc1 (stereo not shown) [Compound 539] | 100% | 100% | – | –
22 | CCn1nnc(-c2ccc(CN3CCC(C(OC(=O)Nc4ccc(C(F)(F)F)cc4)c4cc(F)cc(F)c4)CC3)cc2)n1 (stereo not shown) [Compound 594] | 100% | 100% | – | –
23 | CCn1nnc(-c2ccc(CN3CCC(C(OC(=O)Nc4ccc(Cl)c(Cl)c4)c4ccc(C(F)(F)F)cc4)CC3)cc2)n1 (stereo not shown) [Compound 283] | 100% | 100% | – | –
24 | COc1ccc(C(=O)Nc2ccc(CN3CCC(C(OC(=O)Nc4cc(F)cc(F)c4)c4ccc(C(F)(F)F)cc4)CC3)cc2)cc1 (stereo not shown) [Compound 554] | 0% | 99% | – | –

Row | Structure (SMILES) | Percent Mortality (surface-treated diet) | Percent Growth Inhibition (surface-treated diet) | Percent Mortality | Percent Growth Inhibition
25 | O=C(Nc1ccc(Cl)cc1)OC(c1ccc(OC(F)(F)F)cc1)C1CCN(Cc2ccc(Oc3ncccn3)cc2)CC1 (stereo not shown) [Compound 733] | – | – | 100% | 100%
26 | CON=Cc1ccc(CN2CCC(C(OC(=O)Nc3ccc(F)c(F)c3)c3ccc(OC(F)(F)F)cc3)CC2)cc1 (stereo not shown) [Compound 194] | 100% | 100% | – | –
27 | O=C(Nc1cccc(Br)c1)OC(c1ccc(C(F)(F)F)cc1)C1CCN(Cc2ccc(Oc3ccccn3)cc2)CC1 (stereo not shown) [Compound 672] | 100% | 100% | – | –
28 | COc1ccc(NC(=O)NC(c2ccc(OC(F)(F)F)cc2)C2CCN(Cc3ccc(-c4nnn(C)n4)cc3)CC2)cc1 (stereo not shown) [Compound 343] | 100% | 100% | – | –
29 | Cc1ccc(CNC(=O)OC(c2ccc(C(F)(F)F)cc2)C2CCN(Cc3ccc(Oc4ccccn4)cc3)CC2)cc1 (stereo not shown) [Compound 695] | 100% | 100% | – | –
30 | CC(C)OC(=O)Nc1ccc(CN2CCC(C(OC(=O)Nc3ccc(Cl)cc3)c3ccc(Cl)cc3Cl)CC2)cc1 (stereo not shown) [Compound 506] | 100% | 100% | – | –
31 | CC=CCOC(=O)Nc1ccc(C[N+]2([O-])CCC(=C(c3ccc(C(F)(F)F)cc3)c3ccc(C(F)(F)F)cc3)CC2)cc1 (stereo not shown) [Compound 837] | – | – | 100% | 100%
32 | O=C(Nc1ccc(Cl)cc1)OC(c1ccc(F)cc1)C1CCN(Cc2ccc(Oc3ccccn3)cc2)CC1 (stereo not shown) [Compound 639] | 100% | 100% | – | –
33 | O=C(Nc1ccc(F)cc1)OC(c1ccc(F)cc1)C1CCN(Cc2ccc(Oc3ccccn3)cc2)CC1 (stereo not shown) [Compound 640] | 100% | 100% | – | –
34 | COc1ccc(C(=O)NC(c2ccc(OC(F)(F)F)cc2)C2CCN(Cc3ccc(-c4nnn(C)n4)cc3)CC2)cc1 (stereo not shown) [Compound 331] | 67% | 98% | – | –
35 | Cn1nnc(-c2ccc(CN3CCC(C(OC(=O)Nc4ccc(C(F)(F)F)cc4)c4ccc(OC(F)(F)F)cc4)CC3)cc2)n1 (stereo not shown) [Compound 290] | 100% | 100% | – | –
36 | FC(F)(F)c1ccc(C(=C2CC3CCCC(C2)N3Cc2ccc(Oc3ccccn3)cc2)c2ccc(C(F)(F)F)cc2)cc1 [Compound 117, 2-{4-[(9-aza-3-{bis[4-(trifluoromethyl)phenyl]methylene}bicyclo[3.3.1]non-9-yl)methyl]phenoxy}pyridine] | 100% | 100% | – | –
37 | CCn1nnc(-c2ccc(CN3CCC(C(OC(=O)Nc4ccc(F)c(F)c4)c4ccc(-c5ccccc5)cc4)CC3)cc2)n1 (stereo not shown) [Compound 613] | 83% | 100% | – | –
38 | O=C(Nc1cc(F)cc(F)c1)OC(c1ccc(OC(F)(F)F)cc1)C1CCN(Cc2ccc(F)cc2)CC1 (stereo not shown) [Compound 461] | 0% | 98% | – | –
39 | Cn1nnc(-c2ccc(CN3CCC(C(NC(=O)Nc4ccc(C(F)(F)F)cc4)c4ccc(OC(F)(F)F)cc4)CC3)cc2)n1 (stereo not shown) [Compound 344] | 100% | 100% | – | –
40 | CCON=Cc1ccc(CN2CCC(C(OC(=O)Nc3ccc(Cl)cc3)c3ccc(C(F)(F)F)cc3)CC2)cc1 (stereo not shown) [Compound 182] | 100% | 100% | – | –
41 | N#Cc1ccc(NC(=O)OC(c2ccc(C(F)(F)F)cc2)C2CCN(Cc3ccc(Oc4ccccn4)cc3)CC2)cn1 (stereo not shown) [Compound 446] | 17% | 100% | – | –
42 | [O-][N+]1(Cc2ccc(Oc3ncccn3)cc2)CCC(=C(c2ccc(C(F)(F)F)cc2)c2cccc(Cl)c2)CC1 (stereo not shown) [Compound 846] | – | – | 100% | 100%
43 | [O-][N+]1(Cc2ccc(Oc3ncccn3)cc2)CCC(=C(c2ccc(Cl)cc2)c2ccc(C(F)(F)F)cc2)CC1 (stereo not shown) [Compound 847] | – | – | 100% | 100%
44 | CCn1nnc(-c2ccc(CN3CCC(C(OC(=O)Nc4ccc(Cl)c(Cl)c4)c4ccc(Oc5ccccc5)cc4)CC3)cc2)n1 (stereo not shown) [Compound 617] | 0% | 14% | – | –
45 | Cn1nnc(-c2ccc(CN3CCC(C(NC(=O)Oc4ccc(Br)cc4)c4ccc(OC(F)(F)F)cc4)CC3)cc2)n1 (stereo not shown) [Compound 350] | 100% | 100% | – | –
46 | COC(=O)Nc1ccc(CN2CCC(C(OC(=O)Nc3cc(F)cc(F)c3)c3ccc(C(F)(F)F)cc3)CC2)cc1 (stereo not shown) [Compound 498] | 100% | 100% | – | –
47 | O=C(Nc1ccc(F)c(F)c1)OC(c1ccc(C(F)(F)F)cc1)C1CC[N+]([O-])(Cc2ccc(Oc3ccccn3)cc2)CC1 (stereo not shown) [Compound 754] | – | – | 100% | 100%
